How the values were obtained:
[1] = HPLC analysis of trans/cis isomer content and degradation products after in-line heating and cooling; type: physicochemical; details: 1 s
From the text: (§1) The oily astaxanthin solution may be further processed by mixing with fish feed pellets.

[2] = Degree of dissolution of the carotenoid in the oily phase: filtration through a 0.45 μm pore size filter, then HPLC of the filtrate; type: physicochemical
Description: “Dissolving” or “dissolution” means obtaining molecular dispersions or molecular aggregates of a carotenoid which may be monomers, dimers, trimers etc and/or colloidal dispersions of the carotenoid. Assessment of the degree of dissolution of the carotenoid in an oily phase is performed by filtration of the oily phase through a 0.45 μm pore size filter, followed by HPLC determination of the carotenoid content in the filtrate and compared with the total carotenoid concentration in the unfiltered oily phase. “Substantially” means at least 40 wt %.
as §1

[3] = Example 2: 1500 or 250 ppm astaxanthin composition, heated 150° C., then cooled

## CC1=C(/C=C/C(C)=C/C=C/C(C)=C/C=C/C=C(C)/C=C/C=C(C)/C=C/C2=C(C)C(=O)[C@@H](O)CC2(C)C)C(C)(C)C[C@H](O)C1=O [astaxanthin]
[1]; [3]
  all trans-astaxanthin content: 75%
  cis isomers content: 25%
  further degradation products: no further degradation products
[1]; Example 3: 250 ppm astaxanthin composition, heated 126° C., then cooled with fish oil of 23° C.
  cis-isomers content: 12%
[2]; Example 2: 1500 or 250 ppm astaxanthin composition in soya bean oil/fish oil, heated 150° C., transit time 1 s, then cooled
  degree of dissolution of astaxanthin after filtration through 0.45 μm filter (HPLC): completely solubilised
[2]; Example 3: 250 ppm astaxanthin composition in soy bean oil/fish oil, heated 126° C., 1 s, then cooled with fish oil of 23° C.
  degree of dissolution of astaxanthin after filtration through 0.45 μm filter (HPLC): completely solubilised
